This note sets out measurements from patent US4110327A, “2,3 Diketo-piperazinocarbonylamino alkanoic acids and derivatives” (Toyama Chemical Co., Ltd., priority 1974, dated 1978).

In brackets after ≈: the same amount, converted by molar mass. Bounds are passed on as bounds.

What all share (assay): MIC against standard strain, plate method
What all share (assay type): cell-based

One assay concerns Proteus vulgaris 3027. The following applies: Proteus vulgaris 3027, standard strain; unit assumed. As to the method:
(§1) The minimum inhibitory concentrations (MIC) was determined by the plate method disclosed in "Chemotherapy" (Japan), Vol. 16, (1968), pages 98 - 99. The culture medium used was a Heart infusion agar (pH 7.4). The number of the cells per plate used in the inoculum as 10^4 (10^6 cells/ml).

Another assay deals with Escherichia coli NIHJ. The following applies: unit assumed. Here is the method: as §1
In another assay the test system is Klebsiella pneumoniae. The conditions noted are these: unit assumed. Here is the method: as §1
The test system of assay [1] is Pseudomonas aeruginosa I.F.O. The following applies: unit assumed. As to the method: as §1
The subject of assay [2] is Staphylococcus aureus 209p. The following applies: unit assumed. Here is the method:
as §1

The term MIC denotes the lowest concentration that inhibits growth of the organism. Higher therefore signals a need for much substance. For the molecule `Cc1ccc(C(=O)N2CCN(C(=O)N[C@@H](C(=O)N[C@@H]3C(=O)N4[C@@H]3SC(C)(C)[C@@H]4C(=O)O)c3ccccc3)C(=O)C2)cc1` [compound 9], the MIC against Proteus vulgaris 3027 was 3.13 mg/L (≈ 5.27 µM); in the assay with Escherichia coli NIHJ, 3.13 mg/L (≈ 5.27 µM); with Klebsiella pneumoniae it was 3.13 mg/L (≈ 5.27 µM); in assay [1] it was 100 mg/L (≈ 168 µM); in assay [2] it was < 1.57 mg/L.
Regarding `CC1(C)S[C@@H]2[C@H](NC(=O)[C@H](NC(=O)N3CCN(c4ccccc4)C(=O)C3=O)c3ccccc3)C(=O)N2[C@H]1C(=O)O` (single isomer, unassigned) [compound 43], the MIC against Proteus vulgaris 3027 was < 1.57 mg/L; in the assay on Escherichia coli NIHJ it was < 1.57 mg/L; against Klebsiella pneumoniae, 1.57 mg/L (≈ 2.78 µM); in assay [1], 6.25 mg/L (≈ 11.1 µM); in assay [2], < 1.57 mg/L.
Consider `CC1(C)SC2C(NC(=O)C(NC(=O)N3CCNC(=O)C3=O)c3ccccc3)C(=O)N2C1C(=O)O` (stereo not shown) [compound 59], for which the MIC against Proteus vulgaris 3027 is 3.13 mg/L (≈ 6.39 µM); with Escherichia coli NIHJ it was < 1.57 mg/L; against Klebsiella pneumoniae it was 200 mg/L (≈ 409 µM); in assay [1], 25 mg/L (≈ 51.1 µM); in assay [2], < 1.57 mg/L.
With `CC(C)CCN1CCN(C(=O)N[C@@H](C(=O)N[C@@H]2C(=O)N3[C@@H]2SC(C)(C)[C@@H]3C(=O)O)c2ccccc2)CC1=O` [compound 21], the MIC with Proteus vulgaris 3027 is 3.13 mg/L (≈ 5.74 µM); against Escherichia coli NIHJ, 1.57 mg/L (≈ 2.88 µM); against Klebsiella pneumoniae, 25 mg/L (≈ 45.8 µM); in assay [1], 25 mg/L (≈ 45.8 µM); in assay [2], < 0.79 mg/L.
As for `CN1CCN(C(=O)N[C@@H](C(=O)N[C@@H]2C(=O)N3[C@@H]2SC(C)(C)[C@@H]3C(=O)O)c2ccc(O)cc2)C(=O)C1=O` (single isomer, unassigned) [compound 48], the MIC is < 0.4 mg/L against Proteus vulgaris 3027; < 0.4 mg/L against Escherichia coli NIHJ; 25 mg/L (≈ 48.1 µM) with Klebsiella pneumoniae; 6.25 mg/L (≈ 12 µM) in assay [1]; < 0.4 mg/L in assay [2].
Regarding `CCOC(=O)N1CCN(C(=O)N[C@@H](C(=O)N[C@@H]2C(=O)N3[C@@H]2SC(C)(C)[C@@H]3C(=O)O)c2ccccc2)C(=O)C1` [compound 12], the MIC with Proteus vulgaris 3027 is 12.5 mg/L (≈ 22.8 µM); in the assay on Escherichia coli NIHJ, 3.13 mg/L (≈ 5.72 µM); against Klebsiella pneumoniae it was 6.25 mg/L (≈ 11.4 µM); in assay [1], 50 mg/L (≈ 91.3 µM); in assay [2], < 1.57 mg/L.
The matching figures for `CC1(C)S[C@@H]2[C@H](NC(=O)[C@H](NC(=O)N3CCN(C(=O)c4ccc(Cl)cc4Cl)CC3=O)c3ccccc3)C(=O)N2[C@H]1C(=O)O` [compound 10]: 3.13 mg/L (≈ 4.83 µM), < 1.57 mg/L, 6.25 mg/L (≈ 9.64 µM), 100 mg/L (≈ 154 µM) and < 1.57 mg/L.
Take `CC1(C)S[C@@H]2[C@H](NC(=O)[C@H](NC(=O)N3CCN(CCO)C(=O)C3)c3ccccc3)C(=O)N2[C@H]1C(=O)O` [compound 24]: the MIC with Proteus vulgaris 3027 is 25 mg/L (≈ 48.1 µM); in the assay on Escherichia coli NIHJ, < 1.57 mg/L; in the assay with Klebsiella pneumoniae, 50 mg/L (≈ 96.2 µM); in assay [1], 50 mg/L (≈ 96.2 µM); in assay [2], 3.13 mg/L (≈ 6.02 µM).
For `CC1(C)S[C@@H]2[C@H](NC(=O)[C@H](NC(=O)N3CC(=O)N(C(=O)c4ccccc4)CC3=O)c3ccccc3)C(=O)N2[C@H]1C(=O)O` [compound 34], the MIC in the assay with Proteus vulgaris 3027 is 50 mg/L (≈ 84.2 µM); with Escherichia coli NIHJ, 3.13 mg/L (≈ 5.27 µM); with Klebsiella pneumoniae, 50 mg/L (≈ 84.2 µM); in assay [1], 100 mg/L (≈ 168 µM); in assay [2], 1.57 mg/L (≈ 2.64 µM).
Turning to `CC1(C)S[C@@H]2[C@H](NC(=O)[C@H](NC(=O)N3CCN(C4CCCC4)C(=O)C3)c3ccccc3)C(=O)N2[C@H]1C(=O)O` (single isomer, unassigned) [compound 32], the MIC against Proteus vulgaris 3027 was 6.25 mg/L (≈ 11.5 µM); with Escherichia coli NIHJ it was < 1.57 mg/L; in the assay with Klebsiella pneumoniae, 12.5 mg/L (≈ 23 µM); in assay [1], 12.5 mg/L (≈ 23 µM); in assay [2] it was < 1.57 mg/L.
Take `C=CCN1CCN(C(=O)N[C@@H](C(=O)N[C@@H]2C(=O)N3[C@@H]2SC(C)(C)[C@@H]3C(=O)O)c2ccccc2)CC1=O` [compound 25]: the MIC against Proteus vulgaris 3027 is 3.13 mg/L (≈ 6.07 µM); with Escherichia coli NIHJ it was < 1.57 mg/L; against Klebsiella pneumoniae it was 50 mg/L (≈ 97 µM); in assay [1] it was 25 mg/L (≈ 48.5 µM); in assay [2], < 1.57 mg/L.
